Measured values as given in paper PMC11504230, “Comparative Properties of Helical and Linear Amphipathicity of Peptides Composed of Arginine, Tryptophan, and Valine” (Antibiotics, 2024).
Ends that are not written are not given here.

Assays:
E. coli = type: cell-based; conditions: 18 h
Method: (§1) To examine antibacterial activity, we used minor modifications of a standard growth inhibition assay endorsed by the Clinical and Laboratory Standards Institute (CLSI), as previously described. Bacterial inocula for testing were prepared from exponential growth phase by diluting overnight cultures at 1:100 with fresh Tryptic soy broth (TSB) (Millipore Sigma, USA, Cat. No. 22092-500G) and incubating for an additional 3–4 h. Bacteria were spun at 3000× g for 10 min and the pellet was resuspended in phosphate-buffered saline (PBS) (Millipore Sigma, St Louis, MO, USA, Cat. No. P4417) to determine bacterial turbidity using a Den-1B densitometer (Grant Instruments, Beaver Falls, PA, USA) at 0.5 McFarland (unit of bacterial density) corresponding to […]. The prepared bacteria were incubated with each of the indicated peptides at a maximum test concentration of 16 µM and serially diluted in MHB2 and RPMI 1640 (Corning, NY, USA, Cat. No. 15-040-CM) at a 1:1 ratio. The plates were kept in an 8-drawer incubator for 18 h at 37 °C. A robotic system takes a plate from the drawer every hour and feeds a plate reader, which records the kinetics of bacterial growth at 570 nm to examine growth inhibition in real time (BioTek Instruments, Winooski, VT, USA). The minimum inhibitory concentration or MIC is the minimum peptide concentration that prevented bacterial growth, and it is objectively indicated by a flat (horizontal) line in the bacterial growth kinetic graph. Most assays are completed in duplicate. To assay for anti-biofilm activities, the 96-well plate from the growth inhibition assay is incubated for an additional 6 h (24 h total). The biomass was detected with crystal violet using a plate reader at A570, as previously described.
(§2) Figure 2 Comparative antibacterial activities of the H-RWV and L-RWV series. The 2 series were compared against MDR strains of 6 organisms as indicated. The test medium was composed of physiologically relevant RFM (60% RPMI plus 10% fetal bovine serum or FBS and 30% cation-adjusted MHB); endogenous AMP control was Indolicidin (Indo); small-molecule antibiotic controls were cefazolin, ceftazidime (Ceft), and meropenem (Mero). MIC, minimum inhibitory concentration with means represented by the black and red horizontal bars, which are used to determine the MOLs (minimum optimal lengths) indicated by the red and black arrows. (A–F) is based on the test organism as indicated. Data are representative of 2 independent trials. Corresponding Table 2 provides the mean MICs for the strains of each organism. The numbers stand for each peptide: 8, L/H-RWV8; 10, L/H-RWV10, etc.; red bar, mean MIC of L-RWV peptides and black bars, mean MIC of H-RWV peptides.

[1] = tested on: S. aureus (SA719) biofilm; type: cell-based; conditions: 24 h
Method: as §1
Figure 3 Antibiofilm activities of the […] peptides. MBEC or minimum biofilm elimination concentration is the minimum concentration at which no biomass was detected by the crystal violet method. Standard deviations reflect differences between 2 independent trials. The dashed line is to clarify the mid-point between 0 and 5.

S. aureus = type: cell-based; conditions: 18 h
Method: as §1, §2

Enterobacter spp. = type: cell-based; conditions: 18 h
Method: as §1, §2

A. baumannii = type: cell-based; conditions: 18 h
Method: as §1, §2

K. pneumoniae = type: cell-based; conditions: 18 h
Method: as §1, §2

E. faecium = type: cell-based; conditions: 18 h
Method: as §1, §2

P. aeruginosa = type: cell-based; conditions: 18 h
Method: as §1, §2

human red blood cells = assay: Red blood cell lysis; type: cell-based; conditions: H-RWV16 versus L-RWV12
Method: Lytic effects on human red blood cells were examined as previously described. Briefly, RBCs were separated by histopaque differential centrifugation using blood anonymously obtained from Vitalant (Pittsburgh, PA, USA). For RBC lysis assay, the isolated RBCs were resuspended in PBS at a concentration of 5%. The peptides were serially diluted 2-fold in 100 µL of PBS with a starting concentration of 32 µM. A volume of 100 µL of the prepared 5% RBC solution was then added for a final concentration of 2.5% RBC and incubated for 1 h. After incubation, the plates were centrifuged at 1000× g for 7 min and the supernatant was removed to measure its OD. In parallel, a standard curve of RBC lysis was generated by lysing the RBCs with deionized water at […] RBC dilutions of 10, 20, 30, 40, 50, 60, 70, 80, 90, and 100% to determine the percentage of RBC lysis in the test samples. Both the treated test samples and standard curve were read at A570. Three independent trials of the experiment were conducted.
Figure 4 Human RBC lytic effects of the […] peptides. Indolicidin (Indo) was used as control; RBC lysis was assayed in PBS as described in Methods. For clarity, the dashed line indicates the 10% lysis mark across the graph as a critical point between minor (<10%) and moderate (>10%) RBC lysis.

| Sequence | Mean MIC, E. coli (E. coli) | MBEC (minimum biofilm elimination concentration, no detectable biomass) [1] | Mean MIC, S. aureus (S. aureus) | Mean MIC, Enterobacter spp. (Enterobacter spp.) | Mean MIC, A. baumannii (A. baumannii) | Mean MIC, K. pneumoniae (K. pneumoniae) | Mean MIC, E. faecium (E. faecium) | Mean MIC, P. aeruginosa (P. aeruginosa) | Lytic effect on human RBCs relative to L-RWV12 (human red blood cells) | RBC lysis |
| --- | --- | --- | --- | --- | --- | --- | --- | --- | --- | --- |
| RRRRRRWWWWVV [L-RWV12] | 4.6 ± 1.6 µM | 2.5 ± 1.3 µM | – | – | – | – | – | – | – | – |
| RRVWRWVRRWWR [H-RWV12] | 6.4 ± 2.2 µM | 2 µM | 18 ± 12 µM | 28 ± 7.4 µM | 6 ± 2.3 µM | 18 ± 12 µM | 28 ± 10 µM | 24 ± 8 µM | – | – |
| RRVWRWVRRVWRWVRR [H-RWV16] | – | – | – | – | – | – | – | – | 3 fold | – |
| RRVWRWVRRWWRRV [H-RWV14] | – | 1.7 ± 0.5 µM | 7.5 ± 12 µM | 7.2 ± 5.6 µM | 8 ± 5.6 µM | 7.5 ± 12 µM | 17 ± 12 µM | 12 ± 4 µM | – | 3% |
| RRRRRRRWWWWVVV [L-RWV14] | 4.4 ± 2.7 µM | 2.6 ± 1.2 µM | 3 ± 1 µM | 16.9 ± 14 µM | 7.4 ± 6.2 µM | 3 ± 1 µM | 19 ± 11 µM | 21 ± 9 µM | – | – |
| RRWWRRWW [H-RWV8] | 24 ± 8.8 µM | – | 29 ± 7 µM | 32 µM | 24 ± 9.2 µM | 29 ± 7.1 µM | 32 µM | 27 ± 7.5 µM | – | – |
| RRRRRWWWWV [L-RWV10] | 8 µM | – | 26 ± 8 µM | 32 µM | 8.5 ± 3.6 µM | 26 ± 8.2 µM | 21 ± 9.5 µM | 22 ± 7.7 µM | – | – |
| RRRRWWWW [L-RWV8] | 16 µM | – | 20. ± 0.7 µM | 30.2 ± 5.3 µM | 10.2 ± 0.9 µM | 20 ± 7.4 µM | 30 ± 5 µM | 30 ± 5.2 µM | – | – |
| RRRRRRRRWWWWVVVV [L-RWV16] | 24 ± 10 µM | – | 32 µM | 32 µM | 21 ± 11 µM | 32 µM | 32 µM | 32 µM | – | – |
| RRWWRRVWRW [H-RWV10] | 22 ± 8.8 µM | – | 29 ± 6.5 µM | 32 µM | 22 ± 12 µM | 29 ± 6.5 µM | 19 ± 13 µM | 24 ± 8 µM | – | – |
